Measured values taken from patent publication US11419833B2, “Nasally administered pharmaceutical composition for the treatment of epilepsy and related disorders” (priority 2020, dated 2022).
“Also recorded” adds a separate entry of the source.

Assays:
PTZ-induced kindling = assay: scPTZ-induced chemical kindling model of epileptogenesis; type: in vivo, NMRI mice
Description: The chemical kindling was induced according to the modified method of De Sarro i.e. by repeated treatment of mice with sub-convulsive dose of pentylenetetrazole (subcutaneous, 50 mg/kg) on alternate days. Four doses of Z-acid (150 mg/kg/day, 200 mg/kg/day, 250 mg/kg/day, and 300 mg/kg/day) were administered daily (intraperitoneal). However, on the day of PTZ administration, animals were treated with the Z-acid 30 minutes before administering PTZ. After PTZ was injected, each animal was placed separately in a clear plexiglass cage for close observations for 1 hour. The drug control groups received daily valproic acid. The Racine scoring categorization of epileptic seizures pattern was used to monitor the animals (Table 1). The animals showing score 4-5 were considered to be fully kindled. The cumulative kindling score was then calculated. Experiments were terminated once the animals were fully kindled. At the end of each experiment, animals were humanely sacrificed.

Solubility in water = type: physicochemical
[1] = tested on: PTZ-induced epileptiform activity; assay: PTZ-induced epileptiform activity, intraperitoneal administration (EEG protocol); type: in vivo, rats; details: for spike discharge: Z-acid 150 mg/kg i.p. or diazepam 5 mg/kg, 10 min after PTZ 100 mg/kg, vs PTZ-injected animals, P<0.01
Description: In this set of experiment, effect of Z-acid was investigated on PTZ-induced epileptiform activity. Rats (210±10 g) were divided into six groups as control, diazepam, Z-acid, PTZ, PTZ+diazepam, PTZ+Z-acid with 6 sample size in each group. PTZ was injected at the dose of 100 mg/kg. Z-acid was intraperitoneally injected in anesthetized rats at the dose of 150 mg/kg whereas drug control group was treated with 5 mg/kg dose of diazepam. Saline was used as placebo. PTZ was prepared in saline whereas Z-acid was dissolved in 0.1 N NaOH. EEG was recorded from cortical region of the rat brain.
The protocol was started by anesthetizing rat followed by fixing the animal in stereotaxic apparatus for surgery. The skin was removed to expose the bregma and lambda region of the skull. Three holes of 0.6 mm diameter were drilled with the help of a manual drill. One hole was made on the parietal lobe for the placement of active electrode whereas two were made on the occipital lobes for reference and ground electrodes. A screw with the length of 5 mm and diameter of 0.5 mm was inserted on each hole and electrodes were then connected with the EEG recording system. The recording was started by monitoring the baseline EEG recording for 5 min. After 5 min of noise-free recording, PTZ was injected to induce acute seizures. The EEG recording after the injection of PTZ was continued for 10 min to observe the induction of epileptiform activity. […] After 10 min of recording, Z-acid was injected intraperitoneally to observe its effects on PTZ-induced epileptiform activity.

Cfos = Cfos gene expression (qRT-PCR) in PTZ-induced acute seizure; type: in vivo, rats; details: cortex and hippocampus, p<0.01
From the text: (§1) Rats were decapitated after recording the EEG to collect the brain samples. Cortex and hippocampus regions of brain were excised out to conduct analysis of gene expression using qRT-PCR. The tissue samples were processed for RNA isolation followed by synthesis of cDNA using Revert Aid First strand cDNA synthesis kit (Thermo Scientific). The template cDNA were then used for the amplification of BDNF and Cfos using SYBER green qPCR Master mix (Thermo Scientific). The relative gene expression was determined by comparing 2-ΔΔCt values normalized to β-actin.

glutamate levels = assay: Glutamate levels (ELISA) in PTZ-induced acute seizure; type: in vivo, rats; details: cortex and hippocampus, p<0.01
From the text: Glutamate levels were also estimated in cortex and hippocampus following the administration of Z-acid formulation I. The glutamate levels were estimated using ELISA kit method (Bioassay Technology Laboratory, E1474Ra).

BDNF = BDNF gene expression (qRT-PCR) in PTZ-induced acute seizure; type: in vivo, rats; details: cortex and hippocampus, p<0.01
From the text: as §1

[2] = Sub-chronic toxicity profile, intraperitoneal, 3 months; type: in vivo
Description: To evaluate the sub-chronic toxicity profile of Z-acid the compound was administered daily into mice at the dose of 300 mg/kg (intraperitoneal) for a period of 3 months. The animals were divided into […] (8 per group) as outlined below: • Group I normal control; • Group II treated daily for 1 week; • Group III treated daily for 2 weeks; • Group IV treated daily for 1 month; • Group V treated daily for 2 months; • Group VI treated daily for 3 months
At the end of the study, animals were anaesthetized, dissected and gross examination of vital organs were performed, along with serum and whole brain samples collection. Serum and brain sample were stored in −20° C. for further examination.

[3] = Pharmacokinetics in plasma and brain after single intraperitoneal dose (GC/MS); type: in vivo; details: mice, 300 mg/kg intraperitoneal
Description: The pharmacokinetics of Z-acid in both plasma and brain after a single intraperitoneal dose of Z-acid (300 mg/kg) was studied in mice. Animals were sacrificed at 5 min, 15 min, 30 min, 60 min, 120 min, 180 min, and 240 min after the dose administration (n=4 for each time point). Blood samples were obtained in heparin containing vacutainers. The control group consists of the animals receiving no other treatment and this serve as blank plasma and aided in optimization and validation of the GC/MS method. The blood samples were later centrifuged to obtain plasma which was stored at −20° C. for further processing. Likewise, the brain samples were also collected from the sacrificed animals and stored at −20° C. for further processing on GC-MS.

Stability = type: physicochemical
PTZ-induced seizures = assay: Acute subcutaneous PTZ-induced seizure test; type: in vivo, mice
Description: Anticonvulsant effects of the test compounds were evaluated using subcutaneous PTZ-induced seizure test (subcutaneous PTZ). […] The Z-acid and its analogs were administered intraperitoneally at least 30 min before subcutaneous administration of convulsive dose of PTZ (110 mg/kg). […] Latency to PTZ-induced threshold seizures was also calculated. The latency to threshold seizure is defined as the interval between the time of the PTZ-injection and the occurrence of first episode of threshold seizure. Protection of testing material against PTZ-induced mortality within 24 hours was also evaluated. […] NMRI male mice weighing between 18-22 g were selected for the study. PTZ 110 mg/Kg was administered to the PTZ group and observed the first myoclonic jerk and HLTE.

[4] = intraperitoneal experiment, vs PTZ alone
[5] = 150 mg/kg intraperitoneal, 10 min after PTZ
[6] = intranasal pre-treatment (Formulation I), vs PTZ
[7] = 300, 400 and 500 mg/Kg intraperitoneal, 30 min before PTZ 110 mg/Kg, compared to PTZ group

CCCC(CCC)C(=O)O [valproic acid, reference compound]
seizure pattern till the end of the kindling protocol (PTZ-induced kindling; drug control, daily, compared to PTZ-kindled control group): did not exhibit any seizure pattern

CC1=CC(=CC(=O)O)CC(C)(C)C1 (single isomer, unassigned) [E/Z isomeric mixture, (E/Z)-2,2′-(3,5,5-trimethyl-2-cyclohexen-1-ylidene) acetic acid]
solubility in water (Solubility in water): poorly soluble

CN1C(=O)CN=C(c2ccccc2)c2cc(Cl)ccc21 [diazepam, reference compound]
spike discharge [1]: significantly reduced | Cfos gene expression (Cfos; i.p. treatment, vs PTZ alone): significantly reduced | glutamate levels (glutamate levels; [4]): significantly reduced | BDNF gene expression (BDNF; i.p. treatment, vs PTZ alone): significantly reduced

CC1=C/C(=C\C(=O)O)CC(C)(C)C1 [Z-acid, (Z)-2-(3,5,5-trimethyl-2-cyclohexen-1-ylidene) acetic acid]
time after administration at which PTZ-induced spikes were significantly reduced [1, 5]: 5 min | time after treatment at which PTZ-induced spikes completely diminished [1, 5]: 7 to 10 min | spike discharge [1]: significantly reduced | Cfos gene expression (Cfos; i.p. treatment, vs PTZ alone): significantly reduced | Cfos gene expression (Cfos; [6]): significantly reduced | signs of toxicity, gross anatomy of organs ([2]; 300 mg/kg daily intraperitoneal, 3 months): did not find any sign of toxicity; also recorded: no signs of toxicity | LFT profile, CBC and LDH, creatinine, and urea levels ([2]; blood samples after 3 months daily dosing 300 mg/kg): normal range | persistence or sequestration in brain ([3]; brain): No evidence | time to disappearance from brain ([3]; brain): ≤ 1 h | time to peak concentration in brain ([3]; brain): ≤ 15 min | apparent volume of distribution ([3]; plasma): 10 L | time to disappearance from plasma ([3]; plasma): 2 to 2.5 h | time to peak concentration in plasma ([3]; plasma): ≤ 5 min | half-life ([3]; mouse, ip, plasma): 1 h | stability under all conditions used in various experiments (Stability): stable | stability in different organic solvents (Stability; room temperature and high temperature): stable | development of kindling induced by scPTZ administration (PTZ-induced kindling; 300 mg/kg daily intraperitoneal, PTZ 50 mg/kg on alternate days): complete inhibition | active dose able to inhibit the process of epileptogenesis (PTZ-induced kindling; daily intraperitoneal, doses tested 150-300 mg/kg/day): 300 mg/kg body weight | glutamate levels (glutamate levels; intranasal experiment (Formulation I), vs PTZ): significantly reduced | glutamate levels (glutamate levels; [4]): significantly reduced | HLTE (PTZ-induced seizures; [7]): prevented HLTE in all the animals | onset of myoclonic seizure (PTZ-induced seizures; [7]): significantly delayed | seizure scoring (PTZ-induced seizures; 300, 400 and 500 mg/Kg, compared to PTZ group (FIG. 1)): decreased the number seizure scoring significantly and dose dependently | BDNF gene expression (BDNF; i.p. treatment, vs PTZ alone): significantly reduced | BDNF gene expression (BDNF; [6]): significantly reduced
